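Five concentrations, 48 hours, 96-well plates. Definition used: TGI = concentration required for complete inhibition of growth.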
What was measured:
Assay in all cases: inhibition of tumour cell growth, NCI panel, 48 h
NCI-H460 lung = test system: NCI-H460 lung
RXF 393 renal = test system: RXF 393 renal
OVCAR-5 ovarian = test system: OVCAR-5 ovarian
SNB-75 CNS = test system: SNB-75 CNS
TK-10 renal = test system: TK-10 renal
T-47D breast = test system: T-47D breast
NCI-H522 lung = test system: NCI-H522 lung
SK-MEL-28 melanoma = test system: SK-MEL-28 melanoma
A549 NSCLC = test system: A549 NSCLC
OVCAR-8 ovarian = test system: OVCAR-8 ovarian
UO-31 renal = test system: UO-31 renal
MDA-MB-231 breast = test system: MDA-MB-231 breast

SMILES	TGI (NCI-H460 lung) [µM]	TGI (RXF 393 renal) [µM]	TGI (OVCAR-5 ovarian) [µM]	TGI (SNB-75 CNS) [µM]	TGI (TK-10 renal) [µM]	TGI (T-47D breast) [µM]	TGI (NCI-H522 lung) [µM]	TGI (SK-MEL-28 melanoma) [µM]	TGI (A549 NSCLC) [µM]	TGI (OVCAR-8 ovarian) [µM]	TGI (UO-31 renal) [µM]	TGI (MDA-MB-231 breast) [µM]
COc1cccc2c1CCc1sc(CN3CCN(C)CC3)nc1-2	> 100	> 100	> 100	> 100	> 100	> 100	> 100	> 100	> 100	> 100	> 100	> 100
O=C(NC1CCCCC1)N1CCNC1=S	> 100	> 100	> 100	> 100	> 100	> 100	> 100	> 100	> 100	> 100	> 100	8.05
COC(=O)c1cc(NC(=O)Cn2c3ccccc3c3ccccc32)cn1C	> 100	> 100	> 100		> 100	> 100	> 100	> 100	> 100	> 100	> 100	48.8
CN1C(=O)c2c(c3c4ccccc4n(C)c3c3c2c2ccccc2n3C)C1=O	> 100		> 100	> 100	> 100	> 100	> 100	> 100	> 100	> 100	> 100	> 100
COc1cc2ccnc3c2c(c1OC)N(C)C=C3	29	68.6	> 100	> 100	> 100	> 100		> 100	41	> 100	33.1	80.6
CCCC(CCC(=O)O)(CCC(=O)O)[N+](=O)[O-]	> 100	> 100	> 100	> 100	> 100	> 100	> 100		> 100	> 100	> 100	> 100
Clc1cccc(C=NC23CC4CC(CC(C4)C2)C3)c1Cl	> 10	> 10	> 10	> 10	> 10	> 10	> 10	> 10	> 10	> 10		> 10
CC(=O)[C@H]1CC[C@@H]2[C@]1(C)CC=C1[C@]23C=C[C@]2(C[C@@H](O)CC[C@]12C)C(C(=O)O)C3C(=O)O (stereo partly specified)	> 100		> 100	> 100	> 100	> 100	> 100	> 100	> 100	> 100	> 100	> 100
COC(=O)[C@@]1(Cc2ccc(OC(C)=O)cc2)Cc2cc3ccccc3n2N1			> 100		> 100	> 100	> 100	> 100	> 100	> 100	> 100	> 100
O=C(O)Cn1cnc2c(=O)[nH]c(Nc3ccccc3)nc21	> 100		> 100	> 100	> 100	> 100	> 100	> 100	> 100	> 100		> 100
C=c1c2ccccc2oc2nc3[nH]c(N)c(C#N)c(N)c3c(=N)c12	> 100	> 100	> 100	90.3	> 100	> 100		> 100	> 100	54.6	> 100	> 100
CSCCC(NOC(=O)Cc1ccccc1)P(=O)(O)c1ccccc1 (stereo unspecified)	> 100		> 100	> 100	> 100	> 100	> 100	> 100	> 100	> 100	> 100	> 100
COc1ccccc1-c1nc[nH]c1-c1ccccc1OC	> 100	87.1	> 100	60.7	> 100	> 100	42.1	> 100	> 100		> 100	> 100
Nc1ccc(Oc2ccc(C34CC5CC(C3)CC(c3ccc(Oc6ccc(N)c(O)c6)cc3)(C5)C4)cc2)cc1O	3.37	3.33	4.3		> 20.3	4.07	3.33	6.21	3.24	4.86	3.23	3
CN(C)CC(O)CNC(=O)Nc1ccccc1 (stereo unspecified)	> 100	> 100	> 100	> 100	> 100	> 100		> 100	> 100	> 100	> 100	> 100
OC[C@@H](O)[C@H](O)[C@H](O)[C@@H](O)C1SCCCS1	> 100	> 100	> 100	> 100	> 100	> 100		> 100	> 100	> 100	> 100	> 100
O=C1/C(=C/Cc2ccco2)N=C(c2ccccc2)N1c1nc2ccc(Sc3ccccc3)cc2[nH]1	> 100	36.1	96.9	75.7	> 100	> 100		85	> 100	62.6	50.6	57
